Here are results for five compounds from PubChem BioAssay AID1745844 (Carcinogenic Potency Database (CPDB), 2022).

This series has as its system rodent lifetime carcinogenesis bioassay, tumor incidence TD50. Description: chronic cancer bioassays in animals – CPDB, compiled studies (AID 1745844).

The source made the active and inactive calls. How the calls were made is not given here.

Take `C=CF`: the TD50 (mouse, strain Charles River CD1, females, inhaled, site: Harderian gland, lesion: adenoma, dosed 67 weeks, study length 74 weeks) was 4010 mg/kg/day; the TD50 (mouse, strain Charles River CD1, females, inhaled, site: liver, lesion: hemangiosarcoma, dosed 67 weeks, study length 74 weeks) is 25.4 mg/kg/day; the TD50 (mouse, strain Charles River CD1, females, inhaled, site: lung, lesion: alveolar/bronchiolar adenoma, dosed 67 weeks, study length 74 weeks) is 54.6 mg/kg/day; the TD50 (mouse, strain Charles River CD1, females, inhaled, site: lung, lesion: several types, types named in the paper, dosed 67 weeks, study length 74 weeks) was 54.6 mg/kg/day; the TD50 (mouse, strain Charles River CD1, females, inhaled, site: mammary gland, lesion: adenocarcinoma, dosed 67 weeks, study length 74 weeks) is 13.6 mg/kg/day; the TD50 (mouse, strain Charles River CD1, females, inhaled, site: mammary gland, lesion: several types, types named in the paper, dosed 67 weeks, study length 74 weeks) is 13.6 mg/kg/day. The TD50 is 1000 mg/kg/day (mouse, strain Charles River CD1, males, inhaled, site: Harderian gland, lesion: adenoma, dosed 63 weeks, study length 78 weeks); 19.4 mg/kg/day (mouse, strain Charles River CD1, males, inhaled, site: liver, lesion: hemangiosarcoma, dosed 63 weeks, study length 78 weeks); 34.6 mg/kg/day (mouse, strain Charles River CD1, males, inhaled, site: liver, lesion: hepatocellular adenoma, dosed 63 weeks, study length 78 weeks); 12300 mg/kg/day (mouse, strain Charles River CD1, males, inhaled, site: lung, lesion: alveolar/bronchiolar adenocarcinoma, dosed 63 weeks, study length 78 weeks); 5.78 mg/kg/day (mouse, strain Charles River CD1, males, inhaled, site: lung, lesion: alveolar/bronchiolar adenoma, dosed 63 weeks, study length 78 weeks); 5.78 mg/kg/day (mouse, strain Charles River CD1, males, inhaled, site: lung, lesion: several types, types named in the paper, dosed 63 weeks, study length 78 weeks). Also, the TD50 is 639 mg/kg/day (rat, strain Charles River CD (Sprague-Dawley), females, inhaled, site: Zymbal's gland, lesion: squamous-cell carcinoma, sebaceous, dosed 52 weeks, study length 52 weeks); 684 mg/kg/day (rat, strain Charles River CD (Sprague-Dawley), females, inhaled, site: Zymbal's gland, lesion: squamous-cell carcinoma, sebaceous, dosed 78 weeks, study length 78 weeks); 1470 mg/kg/day (rat, strain Charles River CD (Sprague-Dawley), females, inhaled, site: Zymbal's gland, lesion: squamous-cell carcinoma, sebaceous, dosed 93 weeks, study length 103 weeks); 16.6 mg/kg/day (rat, strain Charles River CD (Sprague-Dawley), females, inhaled, site: liver, lesion: hemangiosarcoma, dosed 93 weeks, study length 103 weeks); 183 mg/kg/day (rat, strain Charles River CD (Sprague-Dawley), females, inhaled, site: liver, lesion: hepatocellular adenoma, dosed 93 weeks, study length 103 weeks); 1440 mg/kg/day (rat, strain Charles River CD (Sprague-Dawley), females, inhaled, site: liver, lesion: hepatocellular carcinoma, dosed 78 weeks, study length 78 weeks). Further, the TD50 was 7770 mg/kg/day (rat, strain Charles River CD (Sprague-Dawley), females, inhaled, site: liver, lesion: hepatocellular carcinoma, dosed 93 weeks, study length 103 weeks); 7380 mg/kg/day (rat, strain Charles River CD (Sprague-Dawley), females, inhaled, site: liver, lesion: several types, types named in the paper, dosed 78 weeks, study length 78 weeks); 183 mg/kg/day (rat, strain Charles River CD (Sprague-Dawley), females, inhaled, site: liver, lesion: several types, types named in the paper, dosed 93 weeks, study length 103 weeks); 213 mg/kg/day (rat, strain Charles River CD (Sprague-Dawley), males, inhaled, site: Zymbal's gland, lesion: squamous-cell carcinoma, sebaceous, dosed 52 weeks, study length 52 weeks); 1090 mg/kg/day (rat, strain Charles River CD (Sprague-Dawley), males, inhaled, site: Zymbal's gland, lesion: squamous-cell carcinoma, sebaceous, dosed 93 weeks, study length 103 weeks); 25 mg/kg/day (rat, strain Charles River CD (Sprague-Dawley), males, inhaled, site: liver, lesion: hemangiosarcoma, dosed 93 weeks, study length 103 weeks). Under “rat, strain Charles River CD (Sprague-Dawley), males, inhaled, site: liver, lesion: hepatocellular adenoma, dosed 93 weeks, study length 103 weeks”, this compound came in with a TD50 of 200 mg/kg/day.

For `Nc1ccccc1-c1ccccc1`, the TD50 is 1120 mg/kg/day (mouse, strain B6C3F1, females, in feed, site: all sites, lesion: angiosarcoma + hemangioma, dosed 103 weeks, study length 104 weeks); 1280 mg/kg/day (mouse, strain B6C3F1, females, in feed, site: all sites, lesion: angiosarcoma, dosed 103 weeks, study length 104 weeks); 1880 mg/kg/day (mouse, strain B6C3F1, females, in feed, site: any site (literature study), lesion: several types, types named in the paper, dosed 103 weeks, study length 104 weeks); 2000 mg/kg/day (mouse, strain B6C3F1, females, in feed, site: liver, lesion: hepatocellular adenoma + hepatocellular carcinoma + neoplastic nodule, dosed 103 weeks, study length 104 weeks); 26100 mg/kg/day (mouse, strain B6C3F1, females, in feed, site: lung, lesion: alveolar/bronchiolar adenoma + alveolar/bronchiolar carcinoma, dosed 103 weeks, study length 104 weeks); 1250 mg/kg/day (mouse, strain B6C3F1, males, in feed, site: all sites, lesion: angiosarcoma + hemangioma + hemangiosarcoma, dosed 103 weeks, study length 104 weeks). Further, the TD50 was 1810 mg/kg/day (mouse, strain B6C3F1, males, in feed, site: all sites, lesion: angiosarcoma + hemangiosarcoma, dosed 103 weeks, study length 104 weeks); 720 mg/kg/day (mouse, strain B6C3F1, males, in feed, site: any site (literature study), lesion: several types, types named in the paper, dosed 103 weeks, study length 104 weeks); 1700 mg/kg/day (mouse, strain B6C3F1, males, in feed, site: liver, lesion: hepatocellular adenoma + hepatocellular carcinoma + neoplastic nodule, dosed 103 weeks, study length 104 weeks); 363 mg/kg/day (rat, strain Fischer 344, females, in feed, site: liver, lesion: hepatocellular adenoma + hepatocellular carcinoma + neoplastic nodule, dosed 103 weeks, study length 105 weeks). The carcinogen call is “negative (inactive)” (rat, strain Fischer 344, females, in feed, site: any site (literature study), lesion: several types, types named in the paper, dosed 103 weeks, study length 105 weeks) and “negative (inactive)” (rat, strain Fischer 344, males, in feed, site: any site (literature study), lesion: several types, types named in the paper, dosed 103 weeks, study length 104 weeks).

`CCOC(=O)/C=C\C(=O)OCC`: the carcinogen call reads like this: (rat, strain F344/DuCrj, males, in feed, site: forestomach, lesion: one or several types, types not named, dosed 51 weeks, study length 52 weeks) “negative (inactive)”; (rat, strain F344/DuCrj, males, in feed, site: stomach, glandular, lesion: one or several types, types not named, dosed 51 weeks, study length 52 weeks) “negative (inactive)”. Besides, the TD50 (rat, strain F344/DuCrj, males, in feed, site: forestomach, lesion: squamous-cell papilloma, dosed 104 weeks, study length 104 weeks) is 1070 mg/kg/day.

Regarding `O=[As](O)(O)O`, the TD50 is 0.169 mg/kg/day (monkey, strain Cynomolgus [Macaca fascicularis], both sexes, in feed, site: any site (literature study), lesion: benign tumor, dosed 735 weeks, study length 735 weeks) and 0.029 mg/kg/day (monkey, strain Cynomolgus [Macaca fascicularis], both sexes, in feed, site: kidney cortex, lesion: adenoma, dosed 735 weeks, study length 735 weeks). Also, the carcinogen call is, setting by setting: (rat, strain Osborne-Mendel, both sexes, in feed, site: any site (literature study), lesion: malignant tumor, dosed 104 weeks, study length 104 weeks) “negative (inactive)”; (rat, strain Osborne-Mendel, both sexes, in feed, site: any site (literature study), lesion: several types, types named in the paper, dosed 104 weeks, study length 104 weeks) “negative (inactive)”.

As to `P`, the TD50 was 53.1 mg/kg/day (inactive) (rat, strain Fischer 344, females, inhaled, site: liver, lesion: hepatocellular adenoma, dosed 104 weeks, study length 104 weeks) and 5.69 mg/kg/day (inactive) (rat, strain Fischer 344, males, inhaled, site: liver, lesion: hepatocellular adenoma, dosed 104 weeks, study length 104 weeks). The carcinogen call runs as follows: (rat, strain Fischer 344, females, inhaled, site: liver, lesion: one or several types, types not named, dosed 52 weeks, study length 52 weeks) “negative (inactive)”; (rat, strain Fischer 344, males, inhaled, site: liver, lesion: hepatocellular carcinoma, dosed 104 weeks, study length 104 weeks) “negative (inactive)”; (rat, strain Fischer 344, males, inhaled, site: liver, lesion: one or several types, types not named, dosed 52 weeks, study length 52 weeks) “negative (inactive)”; (rat, strain Sprague-Dawley, females, in feed, site: any site (literature study), lesion: one or several types, types not named, dosed 52 weeks, study length 52 weeks) “negative (inactive)”; (rat, strain Sprague-Dawley, females, in feed, site: any site (literature study), lesion: several types, types named in the paper, dosed 104 weeks, study length 104 weeks) “negative (inactive)”; (rat, strain Sprague-Dawley, males, in feed, site: any site (literature study), lesion: one or several types, types not named, dosed 52 weeks, study length 52 weeks) “negative (inactive)”. The carcinogen call (rat, strain Sprague-Dawley, males, in feed, site: any site (literature study), lesion: several types, types named in the paper, dosed 104 weeks, study length 104 weeks) was “negative (inactive)”.

One may read the TD50 as the 50% point of the dose-response relation for the toxic effect studied.
